Laboratory results from patent US8795611B2 (priority 2009, dated 2014).
≈ marks a conversion by molar mass, not a printed value.

Tests used:
[1] = assay type: physicochemical; conditions: 1.5 mol/L DEHiBA in Isane IP 185, HNO3 0.5 to 4 M, 25° C.
[2] = Distribution coefficient, single contact in tubes, 1.5 mol/L DEHiBA in Isane IP 185 vs nitric acid solutions (ICP-AES); assay type: physicochemical; conditions: HNO3 0.5 to 4 M, 25° C.
[3] = as above; assay type: physicochemical; conditions: HNO3 0.5 to 4 M, 25° C.; remark: listed apart in the source
[4] = as above; assay type: physicochemical; conditions: HNO3 0.5 to 4 M, 25° C.; remark: listed apart in the source
[5] = as above; assay type: physicochemical; conditions: nitric acid 4 mol/L, regardless of the uranium concentration, 25° C.
[6] = assay type: physicochemical; conditions: 1.5 mol/L DEHiBA in Isane IP 185; aqueous 360 g/L uranium, 2 mol/L nitric acid; even after uranium depletion; 25° C.
[7] = Solubility of DEHiBA in an aqueous phase by total organic carbon (TOC) measurement, test in mixers-decanters; assay type: physicochemical; conditions: for DEHiBA equivalent: assumes all organic carbon stems from the extractant
Source text: The solubility of DEHiBA in an aqueous phase was appreciated by conducting a test in mixers-decanters similar to the one described in Example 1 hereinbefore and by measuring the total organic carbon (or TOC) present in the aqueous phase exiting the battery 11 (called <<extraction raffinate>> hereafter) on the one hand and, in the aqueous phase exiting the battery 13 and containing the purified uranyl nitrate (called <<U production>> hereafter) on the other hand.
The total organic carbon was measured by means of a thermal TOC-meter in the aqueous phases as obtained after decantation, i.e. without submitting these phases to any centrifugation.

[8] = Distribution coefficient, single contact in tubes, 1.5 mol/L DEHiBA in Isane IP 185 vs nitric acid solutions (ICP-AES); assay type: physicochemical; conditions: HNO3 0.5 to 4 M, 25° C.; remark: listed apart in the source
[9] = with or without 30 g/L uranium, 1 hour

In the case of `CCCCC(CC)CN(CC(CC)CCCC)C(=O)C(C)C` (stereo not drawn) [DEHiBA, N,N-di-(2-ethylhexyl)isobutyramide], the “U/impurities separation factor (iron)” value [1] is reported as “greater than 10,000”, the “distribution coefficient of iron” value [1, 9] is reported as “less than 10^−3” and the “U/impurities separation factor (molybdenum)” value [2] is reported as “greater than 10,000”. The “distribution coefficient of molybdenum” value [2, 9] was “less than 10^−3”, the “U/impurities separation factor (zirconium)” value [3] was “greater than 10,000” and the “distribution coefficient of zirconium” value [3, 9] was “less than 10^−3”. For the same compound, the “U/impurities separation factor (vanadium)” value [4] was “greater than 10,000”, the “distribution coefficient of vanadium” value [4, 9] was “less than 10^−3” and the “distribution coefficient of thorium(IV)” value [5] was “less than 5.10^−3”. The “distribution coefficient of thorium 234, DTh” value [6] was “less than 10^−2”, the DEHiBA equivalent ([7]; U production, HNO3 0.34 mol/L) was 0.00019 mol/L and the solubility ([7]; aqueous phase after decantation, under the conditions of the test, includes diluent (TPH) and carried-away organic phase, read-out: DEHiBA soluble in an aqueous phase) was 40 to 60 µg/mL (≈ 128 to 193 µM). The DEHiBA equivalent ([7]; extraction raffinate, HNO3 3.1 mol/L) was 0.00013 mol/L, the “U/impurities separation factor (calcium)” value [8] was “greater than 10,000” and the “distribution coefficient of calcium” value [8, 9] was “less than 10^−3”.
